Key:
rice flat sedge = assay: Test Example 3: herbicidal effect by foliage application, Wagner pot (Table 18, symbol E); type: in vivo, rice flat sedge (Cyperus iria); settings: 320 g/ha
Outline: (§1)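 Plants were sown in alluvial soil held under 0.1–0.5 cm standing water and grown 14 days in a greenhouse at 25–30 °C. An emulsifiable formulation, water-diluted to the set dose, was then sprayed onto the foliage, and effects were scored three weeks later using previously defined criteria.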

Italian ryegrass [1] = assay: Test Example 4: herbicidal effect by soil treatment (Table 19, symbol K); type: in vivo, Italian ryegrass (Lolium multiflorum)
Outline: (§2)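 Step 1: sow seeds in sterilized diluvial soil, cover ~1.5 cm. Step 2: spray diluted emulsion onto soil surface at predetermined rate. Step 3: greenhouse, 25–30° C, three weeks. Step 4: grade effect on each plant by earlier criteria.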

Italian ryegrass [2] = assay: Test Example 5: herbicidal effect by foliage application, plastic box (Table 20, symbol K); type: in vivo, Italian ryegrass (Lolium multiflorum); settings: foliage application, 320 g/ha
Outline: (§3)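 Foliar spray test: emulsion formulation diluted in water to a set application rate, sprayed onto 14-day-old plants raised in diluvial soil at 25° C to 30° C under glass. Both herbicidal effect and crop effect rated visually three weeks later.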

blackgrass [3] = assay: Test Example 5: herbicidal effect by foliage application, plastic box (Table 20, symbol J); type: in vivo, blackgrass (Alopecurus myosuroides); settings: foliage application, 320 g/ha
Outline: as §3

southern crabgrass [4] = assay: Test Example 5: herbicidal effect by foliage application, plastic box (Table 20, symbol F); type: in vivo, southern crabgrass (Digitaria ciliaris); settings: foliage application, 320 g/ha
Outline: as §3

false cleavers [5] = assay: Test Example 4: herbicidal effect by soil treatment (Table 19, symbol Q); type: in vivo, false cleavers (Galium spurium)
Outline: as §2

barnyard grass [6] = assay: Test Example 5: herbicidal effect by foliage application, plastic box (Table 20, symbol H); type: in vivo, barnyard grass (Echinochloa crus-galli); settings: foliage application, 320 g/ha
Outline: as §3

lambsquarters [7] = assay: Test Example 5: herbicidal effect by foliage application, plastic box (Table 20, symbol O); type: in vivo, lambsquarters (Chenopodium album); settings: foliage application, 320 g/ha
Outline: as §3

barnyard grass [8] = assay: Test Example 3: herbicidal effect by foliage application, Wagner pot (Table 18, symbol H); type: in vivo, barnyard grass (Echinochloa crus-galli); settings: 320 g/ha
Outline: as §1

windgrass [9] = assay: Test Example 4: herbicidal effect by soil treatment (Table 19, symbol L); type: in vivo, windgrass (Apera spica-venti)
Outline: as §2

velvetleaf [10] = assay: Test Example 5: herbicidal effect by foliage application, plastic box (Table 20, symbol M); type: in vivo, velvetleaf (Abutilon theophrasti); settings: foliage application, 320 g/ha
Outline: as §3

wild oat [11] = assay: Test Example 4: herbicidal effect by soil treatment (Table 19, symbol I); type: in vivo, wild oat (Avena fatua)
Outline: as §2

persian speedwell [12] = assay: Test Example 5: herbicidal effect by foliage application, plastic box (Table 20, symbol R); type: in vivo, Persian speedwell (Veronica persica); settings: foliage application, 320 g/ha
Outline: as §3

lambsquarters [13] = assay: Test Example 4: herbicidal effect by soil treatment (Table 19, symbol O); type: in vivo, lambsquarters (Chenopodium album)
Outline: as §2

chickweed = assay: Test Example 4: herbicidal effect by soil treatment (Table 19, symbol P); type: in vivo, common chickweed (Stellaria media)
Outline: as §2

velvetleaf [14] = assay: Test Example 4: herbicidal effect by soil treatment (Table 19, symbol M); type: in vivo, velvetleaf (Abutilon theophrasti)
Outline: as §2

windgrass [15] = assay: Test Example 5: herbicidal effect by foliage application, plastic box (Table 20, symbol L); type: in vivo, windgrass (Apera spica-venti); settings: foliage application, 320 g/ha
Outline: as §3

redroot pigweed = assay: Test Example 4: herbicidal effect by soil treatment (Table 19, symbol N); type: in vivo, redroot pigweed (Amaranthus retroflexus)
Outline: as §2

barnyard grass [16] = assay: Test Example 4: herbicidal effect by soil treatment (Table 19, symbol H); type: in vivo, barnyard grass (Echinochloa crus-galli)
Outline: as §2

southern crabgrass [17] = assay: Test Example 4: herbicidal effect by soil treatment (Table 19, symbol F); type: in vivo, southern crabgrass (Digitaria ciliaris)
Outline: as §2

Chinese sprangletop = assay: Test Example 3: herbicidal effect by foliage application, Wagner pot (Table 18, symbol D); type: in vivo, chinese sprangletop (Leptochloa chinensis); settings: 320 g/ha
Outline: as §1

green foxtail [18] = assay: Test Example 5: herbicidal effect by foliage application, plastic box (Table 20, symbol G); type: in vivo, green foxtail (Setaria viridis); settings: foliage application, 320 g/ha
Outline: as §3

wild oat [19] = assay: Test Example 5: herbicidal effect by foliage application, plastic box (Table 20, symbol I); type: in vivo, wild oat (Avena fatua); settings: foliage application, 320 g/ha
Outline: as §3

blackgrass [20] = assay: Test Example 4: herbicidal effect by soil treatment (Table 19, symbol J); type: in vivo, blackgrass (Alopecurus myosuroides)
Outline: as §2

persian speedwell [21] = assay: Test Example 4: herbicidal effect by soil treatment (Table 19, symbol R); type: in vivo, Persian speedwell (Veronica persica)
Outline: as §2

false cleavers [22] = assay: Test Example 5: herbicidal effect by foliage application, plastic box (Table 20, symbol Q); type: in vivo, false cleavers (Galium spurium); settings: foliage application, 320 g/ha
Outline: as §3

green foxtail [23] = assay: Test Example 4: herbicidal effect by soil treatment (Table 19, symbol G); type: in vivo, green foxtail (Setaria viridis); settings: amount of applied herbicide 320 g/ha
Outline: as §2

[24] = amount of applied herbicide 320 g/ha

Compound: CCCC(=O)Oc1c(OC)nn(C)c(=O)c1-c1c(-c2ccc3c(c2)OCCO3)sc2ccccc12 [1-199]
- herbicidal effect on E (rice flat sedge), rating 0-5 (rice flat sedge): 5 (Herbicidal rate of 90% or more (almost completely withered))
- K: Italian ryegrass, herbicidal effect rating (Italian ryegrass [1]; AAH 320 g/ha): 0 (Herbicidal rate of 5% or less (almost no effect))
- effect on Italian ryegrass (K) (Italian ryegrass [2]; 3 weeks after application): 0 (Herbicidal rate of 5% or less (almost no effect))
- effect on blackgrass (J) (blackgrass [3]; 3 weeks after application): 0 (Herbicidal rate of 5% or less (almost no effect))
- effect on southern crabgrass (F) (southern crabgrass [4]; 3 weeks after application): 0 (Herbicidal rate of 5% or less (almost no effect))
- Q: false cleavers, herbicidal effect rating (false cleavers [5]; AAH 320 g/ha): 0 (Herbicidal rate of 5% or less (almost no effect))
- effect on barnyard grass (H) (barnyard grass [6]; 3 weeks after application): 0 (Herbicidal rate of 5% or less (almost no effect))
- effect on lambsquarters (O) (lambsquarters [7]; 3 weeks after application): 0 (Herbicidal rate of 5% or less (almost no effect))
- herbicidal effect on H (barnyard grass), rating 0-5 (barnyard grass [8]): 0 (Herbicidal rate of 5% or less (almost no effect))
- L: windgrass, herbicidal effect rating (windgrass [9]; AAH 320 g/ha): 0 (Herbicidal rate of 5% or less (almost no effect))
- effect on velvetleaf (M) (velvetleaf [10]; 3 weeks after application): 0 (Herbicidal rate of 5% or less (almost no effect))
- I: wild oat, herbicidal effect rating (wild oat [11]; AAH 320 g/ha): 0 (Herbicidal rate of 5% or less (almost no effect))
- effect on persian speedwell (R) (persian speedwell [12]; 3 weeks after application): 4 (Herbicidal rate of 70% or more and less than 90%)
- O: lambsquarters, herbicidal effect rating (lambsquarters [13]; AAH 320 g/ha): 3 (Herbicidal rate of 40% or more and less than 70%)
- P: chickweed, herbicidal effect rating (chickweed; AAH 320 g/ha): 4 (Herbicidal rate of 70% or more and less than 90%)
- M: velvetleaf, herbicidal effect rating (velvetleaf [14]; AAH 320 g/ha): 0 (Herbicidal rate of 5% or less (almost no effect))
- effect on windgrass (L) (windgrass [15]; 3 weeks after application): 0 (Herbicidal rate of 5% or less (almost no effect))
- N: redroot pigweed, herbicidal effect rating (redroot pigweed; AAH 320 g/ha): 0 (Herbicidal rate of 5% or less (almost no effect))
- H: barnyard grass, herbicidal effect rating (barnyard grass [16]; AAH 320 g/ha): 2 (Herbicidal rate of 20% or more and less than 40%)
- F: southern crabgrass, herbicidal effect rating (southern crabgrass [17]; AAH 320 g/ha): 1 (Herbicidal rate of 5% or more and less than 20%)
- herbicidal effect on D (Chinese sprangletop), rating 0-5 (Chinese sprangletop): 0 (Herbicidal rate of 5% or less (almost no effect))
- effect on green foxtail (G) (green foxtail [18]; 3 weeks after application): 0 (Herbicidal rate of 5% or less (almost no effect))
- effect on wild oat (I) (wild oat [19]; 3 weeks after application): 0 (Herbicidal rate of 5% or less (almost no effect))
- J: blackgrass, herbicidal effect rating (blackgrass [20]; AAH 320 g/ha): 0 (Herbicidal rate of 5% or less (almost no effect))
- R: persian speedwell, herbicidal effect rating (persian speedwell [21]; AAH 320 g/ha): 5 (Herbicidal rate of 90% or more (almost completely withered))
- effect on false cleavers (Q) (false cleavers [22]; 3 weeks after application): 0 (Herbicidal rate of 5% or less (almost no effect))

Compound: COc1cc2sc(-c3ccccc3OC)c(-c3c(O)c(C)nn(C)c3=O)c2cc1OC [5-059]
- herbicidal effect on rice flat sedge (E) (rice flat sedge): 4 (Herbicidal rate of 70% or more and less than 90%)
- K: Italian ryegrass, herbicidal effect grade (Italian ryegrass [1]; [24]): 4 (Herbicidal rate of 70% or more and less than 90%)
- herbicidal effect on Italian ryegrass (K) (Italian ryegrass [2]; three weeks after application): 4 (Herbicidal rate of 70% or more and less than 90%)
- herbicidal effect on blackgrass (J) (blackgrass [3]; three weeks after application): 5 (Herbicidal rate of 90% or more (almost completely withered))
- herbicidal effect on southern crabgrass (F) (southern crabgrass [4]; three weeks after application): 4 (Herbicidal rate of 70% or more and less than 90%)
- Q: false cleavers, herbicidal effect grade (false cleavers [5]; [24]): 0 (Herbicidal rate of 5% or less (almost no effect))
- herbicidal effect on barnyard grass (H) (barnyard grass [6]; three weeks after application): 3 (Herbicidal rate of 40% or more and less than 70%)
- herbicidal effect on lambsquarters (O) (lambsquarters [7]; three weeks after application): 4 (Herbicidal rate of 70% or more and less than 90%)
- herbicidal effect on barnyard grass (H) (barnyard grass [8]): 5 (Herbicidal rate of 90% or more (almost completely withered))
- L: windgrass, herbicidal effect grade (windgrass [9]; [24]): 3 (Herbicidal rate of 40% or more and less than 70%)
- herbicidal effect on velvetleaf (M) (velvetleaf [10]; three weeks after application): 3 (Herbicidal rate of 40% or more and less than 70%)
- I: wild oat, herbicidal effect grade (wild oat [11]; [24]): 0 (Herbicidal rate of 5% or less (almost no effect))
- herbicidal effect on persian speedwell (R) (persian speedwell [12]; three weeks after application): 4 (Herbicidal rate of 70% or more and less than 90%)
- O: lambsquarters, herbicidal effect grade (lambsquarters [13]; [24]): 0 (Herbicidal rate of 5% or less (almost no effect))
- P: chickweed, herbicidal effect grade (chickweed; [24]): 0 (Herbicidal rate of 5% or less (almost no effect))
- M: velvetleaf, herbicidal effect grade (velvetleaf [14]; [24]): 0 (Herbicidal rate of 5% or less (almost no effect))
- herbicidal effect on windgrass (L) (windgrass [15]; three weeks after application): 4 (Herbicidal rate of 70% or more and less than 90%)
- G: green foxtail, herbicidal effect grade (green foxtail [23]): 0 (Herbicidal rate of 5% or less (almost no effect))
- N: redroot pigweed, herbicidal effect grade (redroot pigweed; [24]): 0 (Herbicidal rate of 5% or less (almost no effect))
- H: barnyard grass, herbicidal effect grade (barnyard grass [16]; [24]): 0 (Herbicidal rate of 5% or less (almost no effect))
- F: southern crabgrass, herbicidal effect grade (southern crabgrass [17]; [24]): 0 (Herbicidal rate of 5% or less (almost no effect))
- herbicidal effect on Chinese sprangletop (D) (Chinese sprangletop): 3 (Herbicidal rate of 40% or more and less than 70%)
- herbicidal effect on green foxtail (G) (green foxtail [18]; three weeks after application): 4 (Herbicidal rate of 70% or more and less than 90%)
- herbicidal effect on wild oat (I) (wild oat [19]; three weeks after application): 4 (Herbicidal rate of 70% or more and less than 90%)
- J: blackgrass, herbicidal effect grade (blackgrass [20]; [24]): 3 (Herbicidal rate of 40% or more and less than 70%)
- R: persian speedwell, herbicidal effect grade (persian speedwell [21]; [24]): 0 (Herbicidal rate of 5% or less (almost no effect))
- herbicidal effect on false cleavers (Q) (false cleavers [22]; three weeks after application): 0 (Herbicidal rate of 5% or less (almost no effect))

— patent publication US20230085307A1, “PYRIDAZINONE COMPOUND AND HERBICIDE” (NISSAN CHEMICAL CORPORATION, priority 2019, published 2023)
